According to article PMC10333884, “Large‐scale phosphomimetic screening identifies phospho‐modulated motif‐based protein interactions” (Molecular Systems Biology, 2023):
Non-standard residues stand in square brackets, D forms with d. Residues, ends and D or L forms follow the SMILES beside them. pT = C[C@@H](OP(=O)(O)O)[C@H](N)C(=O)O; pS = N[C@@H](COP(=O)(O)O)C(=O)O

Key:
Assay type in all cases: binding
GGA1 VHS [1] = biological target: T1, GGA1 VHS (Homo sapiens, UniProt Q9UJY5); assay: FP displacement assay, GGA1 VHS
T1 construct: GGA1_VHS__Q9UJY5_1_157; GST (cleaved yes); made in house; host or cells: Escherichia coli BL21-Gold(DE3)
T1 sequence (Q9UJY5 1-157): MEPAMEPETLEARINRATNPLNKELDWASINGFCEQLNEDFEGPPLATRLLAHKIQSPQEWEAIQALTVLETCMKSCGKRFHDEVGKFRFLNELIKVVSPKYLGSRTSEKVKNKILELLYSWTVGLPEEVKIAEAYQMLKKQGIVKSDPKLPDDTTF
Method: (§1) FP experiments were performed as described previously (Kliche et al, [2021]). Shortly, in order to monitor the binding event, FITC‐labelled peptides were used (excitation 495 nm, emission: 535 nm) and the FP signal was recorded in mP on a SpectraMax iD5 Multi‐Mode Microplate Reader (Molecular Devices) by measuring the emitted light in two angels. The measurements were performed at room temperature and prepared in nonbinding black half area 96‐well microplates (Corning®; 50 μl/well). For measuring direct binding, that is saturation curves, a 1:1 dilution series of protein domain (25 μl/well) was generated in 50 mM sodium phosphate buffer pH 7.4 and the measurement performed with 5 nM FITC‐labelled peptide (25 μl/well). The buffer‐corrected values were subsequently plotted with PRISM and fitted to the quadratic equation (Gianni et al, [2005]).
(§2) The 1:1 dilution series in this experiment was performed with the unlabelled peptide in 50 mM sodium phosphate buffer pH 7.4, so that each well‐contained unlabelled peptide (25 μl) at a certain concentration and pre‐formed complex (25 μl). The KD values of this indirectly monitored binding event were calculated as described previously (Nikolovska‐Coleska et al, [2004]). All measurements were at least in technical triplicates as well as biological duplicates when indicated. An amplitude shift between repeat measurements in the displacement experiments was occasionally observed due to variations in the protein preparations. If that was the case, the “active” protein concentration was back‐calculated according to the quadratic equation from the saturation curves performed in parallel. By comparing the active protein concentrations in the complex between different protein preparations, the amplitude was normalised.

GGA1 VHS [2] = biological target: T1, GGA1 VHS; assay: ITC, GGA1 VHS; set-up: Ka: unit not given beside the values; conditions: for Kd: ITC (iTC200), 50 mM sodium phosphate pH 7.4, 1 mM DTT, average of the runs, technical duplicates
SNX27 PDZ = biological target: T2, SNX27 PDZ (Homo sapiens, UniProt Q96L92); assay: FP displacement assay, SNX27 PDZ (MBP-tagged); conditions: for Kd: MBP-tagged domain, probe FITC-SYT16 5 nM, 50 mM sodium phosphate pH 7.4, room temperature, at least three technical replicates, read-out: KD values ± SEM
T2 construct: SNX27_PDZ__Q96L92_40_141; made in house; host or cells: Escherichia coli BL21-Gold(DE3)
Method: For FP, ITC and crystallisation, the tag was removed with the appropriate protease either on beads (0.1 mg/ml thrombin (Cytiva) in PBS, 1 mM dithiothreitol (DTT)) or by dialysis in cleavage buffer (Human Rhinovirus (HRV) 3C protease: 50 mM Tris–HCl pH 7.4, 150 mM NaCl, 1 mM β‐mercaptoethanol), both procedures were overnight. In case of HRV protease cleavage, the tag was separated from the target protein domain by reverse ion metal affinity chromatography using Ni^2+ beads for purification, whereas thrombin was removed using a benzamidine column (Cytiva). Affinity measurements for SNX27 PDZ were performed on the MBP‐tagged construct, as well as PIN1 WW domain on the GST‐tagged construct. For FP and ITC, proteins were dialysed in 50 mM sodium phosphate buffer pH 7.4, 1 mM DTT. For crystallisation of the NTD of clathrin, the protein was further purified by a S200 Sepharose column (Cytiva) using 20 mM Tris–HCl pH 7.4, 150 mM NaCl and 1 mM DTT.
as §1, §2

GABARAPL2 = biological target: T3, GABARAPL2 (Homo sapiens, UniProt P60520); assay: FP displacement assay, GABARAPL2; conditions: read-out: KD values ± SEM
T3 construct: GABARAPL2_ATG8__P60520_2_115; GST (cleaved yes); made in house; host or cells: Escherichia coli BL21-Gold(DE3)
T3 sequence (P60520 2-115): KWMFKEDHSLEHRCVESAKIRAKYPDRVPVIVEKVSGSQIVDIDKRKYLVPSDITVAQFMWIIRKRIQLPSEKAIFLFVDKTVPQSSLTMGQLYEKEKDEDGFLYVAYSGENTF
Method: as §1, §2

MAP1LC3B = biological target: T4, MAP1LC3B (Homo sapiens, UniProt Q9GZQ8); assay: FP displacement assay, MAP1LC3B; conditions: read-out: KD values ± SEM
T4 construct: GST (cleaved yes); made in house; host or cells: Escherichia coli BL21-Gold(DE3)
Method: as §1, §2

MAP1LC3A = biological target: T5, MAP1LC3A (Homo sapiens, UniProt Q9H492); assay: FP displacement assay, MAP1LC3A
T5 construct: GST (cleaved yes); made in house; host or cells: Escherichia coli BL21-Gold(DE3)

[3] = FP displacement, probe FITC-IGF2R 5 nM, 50 mM sodium phosphate pH 7.4, room temperature, at least three technical replicates, read-out: KD values ± SEM
[4] = ITC single run: date 200220, injection 1
[5] = ITC single run: date 200220, injection 2

Question: With `CC(=O)N[C@@H](CCC(=O)O)C(=O)N[C@H](C(=O)N[C@@H](Cc1ccc(O)cc1)C(=O)N[C@@H](Cc1ccc(O)cc1)C(=O)N[C@@H](CC(C)C)C(=O)N[C@@H](CO)C(=O)N[C@@H](CC(=O)O)C(=O)N[C@@H](CO)C(=O)N1CCC[C@H]1C(=O)N[C@@H](CC(C)C)C(=O)N[C@@H](CC(C)C)C(=O)NCC(=O)N1CCC[C@H]1C(=O)N1CCC[C@H]1C(=O)N[C@H](C(=O)NCC(N)=O)C(C)C)[C@@H](C)O` [GTSE1_145–160 wt] (Ac-ETYYLSDSPLLGPPVG-NH2) as the molecule, how does the Kd (GGA1 VHS [1]; [3]) read?
Answer: 96 ± 8 µM

Question: With `CC[C@H](C)[C@H](NC(=O)[C@H](CC(=O)O)NC(=O)[C@H](CC(=O)O)NC(=O)[C@H](CO)NC(=O)[C@@H](NC(=O)[C@@H]1CCCN1C(=O)[C@H](CO)NC(=O)[C@H](CCCCN)NC(=O)[C@H](Cc1ccc(O)cc1)NC(C)=O)[C@@H](C)O)C(=O)N[C@@H](COP(=O)(O)O)C(=O)N[C@@H](CC(C)C)C(=O)N[C@@H](CC(C)C)C(=O)N[C@@H](Cc1c[nH]cn1)C(=O)N[C@@H](CCC(=O)O)C(=O)N[C@@H](CO)C(=O)N[C@@H](CCC(N)=O)C(=O)N[C@@H](CO)C(N)=O` [RNF11_6–21 pS] (Ac-YKSPTSDDI[pS]LLHESQS-NH2) as the molecule, how does the Kd (GGA1 VHS [2]) read?
Answer: 27 µM

Question: What about the Ka (GGA1 VHS [2]; [4]) of the same molecule?
Answer: 35100

Question: And the Ka (GGA1 VHS [2]; [5])?
Answer: 38900

Question: And the Kd (GGA1 VHS [1]; [3])?
Answer: 31 ± 3 µM

Question: How did the IC50 (SNX27 PDZ; Fig 4B, SNX27 PDZ, technical triplicates, read-out: IC50 values of displacement curves, with SEM) turn out when `CSCC[C@H](NC(=O)CNC(C)=O)C(=O)N[C@H](C(=O)N[C@@H](CO)C(=O)N[C@@H](COP(=O)(O)O)C(=O)N[C@H](C(=O)N[C@@H](CO)C(=O)N[C@@H](Cc1ccccc1)C(=O)N[C@@H](CC(N)=O)C(=O)NCC(=O)NCC(=O)N[C@@H](Cc1ccc(O)cc1)C(N)=O)[C@@H](C)O)C(C)C` [DAXX606–616 pS] (Ac-GMVS[pS]TSFNGGY-NH2) was run?
Answer: 427 ± 39 µM

Question: And the Kd (SNX27 PDZ)?
Answer: 96 ± 5 µM

Question: Which results are given for `CC[C@H](C)[C@H](NC(=O)[C@H](CC(=O)O)NC(=O)[C@H](CC(=O)O)NC(=O)[C@H](CO)NC(=O)[C@@H](NC(=O)[C@@H]1CCCN1C(=O)[C@H](CO)NC(=O)[C@H](CCCCN)NC(=O)[C@H](Cc1ccc(O)cc1)NC(C)=O)[C@@H](C)O)C(=O)N[C@@H](CO)C(=O)N[C@@H](CC(C)C)C(=O)N[C@@H](CC(C)C)C(=O)N[C@@H](Cc1c[nH]cn1)C(=O)N[C@@H](CCC(=O)O)C(=O)N[C@@H](CO)C(=O)N[C@@H](CCC(N)=O)C(=O)N[C@@H](CO)C(N)=O` [RNF11_6–21 wt] (Ac-YKSPTSDDISLLHESQS-NH2)?
Answer: Kd (GGA1 VHS [2]): 919 µM; Ka (GGA1 VHS [2]; [4]): 2030; Ka (GGA1 VHS [2]; [5]): 744; Kd (GGA1 VHS [1]; [3]): 420 ± 50 µM

Question: `CC(=O)N[C@@H](CC(=O)O)C(=O)N[C@@H](CC(C)C)C(=O)N[C@@H](CC(C)C)C(=O)N[C@H](C(=O)N[C@@H](CO)C(=O)N1CCC[C@H]1C(=O)N[C@@H](CC(=O)O)C(=O)N[C@H](C(=O)NCC(=O)N[C@@H](CC(C)C)C(=O)N[C@@H](CC(C)C)C(=O)N[C@@H](CCCCN)C(=O)N[C@@H](CC(C)C)C(=O)N[C@@H](C)C(=O)N[C@@H](CO)C(=O)N[C@@H](Cc1ccc(O)cc1)C(N)=O)C(C)C)[C@@H](C)OP(=O)(O)O` [JUN59–73 pS] (Ac-DLL[pT]SPDVGLLKLASY-NH2) was tested. Which Kd (GGA1 VHS [1]) did it give?
Answer: 1900 µM

Question: For `CC(=O)N[C@@H](CC(N)=O)C(=O)N[C@@H](CC(C)C)C(=O)N[C@@H](CC(C)C)C(=O)N[C@@H](CC(C)C)C(=O)N[C@@H](CCC(=O)O)C(=O)N[C@@H](CCCNC(=N)N)C(=O)N[C@@H](CC(=O)O)C(=O)N[C@H](C(=O)N[C@@H](CO)C(=O)N[C@@H](Cc1ccccc1)C(=O)N[C@H](C(=O)N[C@H](C(=O)N[C@@H](C)C(=O)N1CCC[C@H]1C(=O)N[C@@H](CC(=O)O)C(=O)N[C@@H](Cc1ccc(O)cc1)C(N)=O)C(C)C)[C@@H](C)O)[C@@H](C)O` [CDC25C30–44 wt] (Ac-NLLLERDTSFTVAPDY-NH2), which Kd (SNX27 PDZ) is on record?
Answer: 111 ± 17 µM

Question: For `CC(=O)N[C@@H](CC(N)=O)C(=O)N[C@@H](CC(C)C)C(=O)N[C@@H](CC(C)C)C(=O)N[C@@H](CC(C)C)C(=O)N[C@@H](CCC(=O)O)C(=O)N[C@@H](CCCNC(=N)N)C(=O)N[C@@H](CC(=O)O)C(=O)N[C@H](C(=O)N[C@@H](COP(=O)(O)O)C(=O)N[C@@H](Cc1ccccc1)C(=O)N[C@H](C(=O)N[C@H](C(=O)N[C@@H](C)C(=O)N1CCC[C@H]1C(=O)N[C@@H](CC(=O)O)C(=O)N[C@@H](Cc1ccc(O)cc1)C(N)=O)C(C)C)[C@@H](C)O)[C@@H](C)O` [CDC25C30–44 pS] (Ac-NLLLERDT[pS]FTVAPDY-NH2), which Kd (SNX27 PDZ) is on record?
Answer: 395 ± 63 µM

Question: Which Kd (GGA1 VHS [1]) does the source give for `CC(=O)N[C@@H](CC(=O)O)C(=O)N[C@@H](CC(C)C)C(=O)N[C@@H](CC(C)C)C(=O)N[C@H](C(=O)N[C@@H](CO)C(=O)N1CCC[C@H]1C(=O)N[C@@H](CC(=O)O)C(=O)N[C@H](C(=O)NCC(=O)N[C@@H](CC(C)C)C(=O)N[C@@H](CC(C)C)C(=O)N[C@@H](CCCCN)C(=O)N[C@@H](CC(C)C)C(=O)N[C@@H](C)C(=O)N[C@@H](CO)C(=O)N[C@@H](Cc1ccc(O)cc1)C(N)=O)C(C)C)[C@@H](C)O` [JUN59–73 wt] (Ac-DLLTSPDVGLLKLASY-NH2) here?
Answer: 470 ± 50 µM

Question: Which Kd (SNX27 PDZ) does the source give for `CSCC[C@H](NC(=O)CNC(C)=O)C(=O)N[C@H](C(=O)N[C@@H](CO)C(=O)N[C@@H](CO)C(=O)N[C@H](C(=O)N[C@@H](CO)C(=O)N[C@@H](Cc1ccccc1)C(=O)N[C@@H](CC(N)=O)C(=O)NCC(=O)NCC(=O)N[C@@H](Cc1ccc(O)cc1)C(N)=O)[C@@H](C)O)C(C)C` [DAXX606–616 wt] (Ac-GMVSSTSFNGGY-NH2) here?
Answer: 300 ± 125 µM

Question: How did the Kd (GABARAPL2) turn out when `CC(=O)N[C@@H](Cc1ccc(O)cc1)C(=O)N[C@@H](CCCCN)C(=O)N[C@@H](CCCCN)C(=O)N[C@@H](CCC(N)=O)C(=O)N[C@@H](CC(C)C)C(=O)N[C@@H](CCCCN)C(=O)N[C@@H](CCCNC(=N)N)C(=O)N[C@@H](Cc1ccccc1)C(=O)N[C@@H](CO)C(=O)N[C@H](C(=O)N[C@@H](CCC(=O)O)C(=O)N[C@@H](CCC(=O)O)C(=O)N[C@@H](Cc1ccccc1)C(=O)N[C@H](C(=O)N[C@@H](CC(C)C)C(=O)N[C@@H](CC(C)C)C(=O)O)C(C)C)[C@@H](C)O` [ATG4C444–458 wt] was run?
Answer: 0.8 ± 0.4 µM

Question: What about the Kd (MAP1LC3B) of the same molecule?
Answer: 7.1 ± 0.6 µM

Question: And the IC50 (MAP1LC3A; Fig 4B, MAP1LC3A ATG8, FP displacement, technical triplicates, read-out: IC50 values of displacement curves, with SEM)?
Answer: 17 ± 1 µM

Question: What about the Kd (MAP1LC3A; read-out: KD values ± SEM) of the same molecule?
Answer: 5.2 ± 0.2 µM
